Numbers after ± are expanded uncertainties.
Assays:
[1] = 101.3 kPa, Liquid; for viscosity: Capillary tube (Ostwald / Ubbelohde) method
[2] = xn = mol fraction of the nth substance listed; conditions: 101.3 kPa, Liquid, x2 = 0; for viscosity: Capillary tube (Ostwald / Ubbelohde) method

SMILES | mass density ([1]; 293.15 K) [kg/m3] | speed of sound ([1]; 293.15 K) [m/s] | viscosity ([1]; 293.15 K) [mPa·s] | mass density ([1]; 303.15 K) [kg/m3] | speed of sound ([1]; 303.15 K) [m/s] | viscosity ([1]; 303.15 K) [mPa·s] | mass density ([1]; 313.15 K) [kg/m3] | speed of sound ([1]; 313.15 K) [m/s] | viscosity ([1]; 313.15 K) [mPa·s] | viscosity ([2]; 293.15 K) [mPa·s] | mass density ([2]; 293.15 K) [kg/m3] | speed of sound ([2]; 293.15 K) [m/s] | viscosity ([2]; 303.15 K) [mPa·s] | mass density ([2]; 303.15 K) [kg/m3] | speed of sound ([2]; 303.15 K) [m/s] | viscosity ([2]; 313.15 K) [mPa·s] | mass density ([2]; 313.15 K) [kg/m3] | speed of sound ([2]; 313.15 K) [m/s]
Cc1ccccc1C [1,2-dimethylbenzene] | 880.2 ± 1.2 | 1365.6 ± 3.5 | 0.8092 ± 0.0098 | 871.8 ± 1.2 | 1339 ± 3.5 | 0.7172 ± 0.0089 | 863.2 ± 1.3 | 1297.5 ± 3.4 | 0.6292 ± 0.0079 |  |  |  |  |  |  |  |  | 
Cc1ccccc1C [1,2-dimethylbenzene] + CCC(=O)CC |  |  |  |  |  |  |  |  |  | 0.8092 ± 0.0098 | 880.2 ± 1.2 | 1365.6 ± 3.5 | 0.7172 ± 0.0089 | 871.8 ± 1.2 | 1339 ± 3.5 | 0.6292 ± 0.0079 | 863.2 ± 1.3 | 1297.5 ± 3.4
CCc1ccccc1 [ethylbenzene] | 867.4 ± 1.2 | 1333.4 ± 3.5 | 0.6793 ± 0.0085 | 856.5 ± 1.2 | 1295.7 ± 3.4 | 0.6006 ± 0.0077 | 848.9 ± 1.3 | 1259.8 ± 3.4 | 0.5355 ± 0.007 |  |  |  |  |  |  |  |  | 
CCc1ccccc1 [ethylbenzene] + CCC(=O)CC |  |  |  |  |  |  |  |  |  | 0.6793 ± 0.0085 | 867.4 ± 1.2 | 1333.4 ± 3.5 | 0.6006 ± 0.0077 | 856.5 ± 1.2 | 1295.7 ± 3.4 | 0.5355 ± 0.007 | 848.9 ± 1.3 | 1259.8 ± 3.4
CCC(=O)CC [pentan-3-one] | 814.4 ± 1.1 | 1230.7 ± 3.3 | 0.4714 ± 0.0064 | 804.7 ± 1.1 | 1197.8 ± 3.3 | 0.4231 ± 0.0059 | 794.9 ± 1.2 | 1159.1 ± 3.3 | 0.3799 ± 0.0055 |  |  |  |  |  |  |  |  | 

— the NIST ThermoML archive (doi:10.1021/je030151s)
